Results on four compounds are retold here after US8962664B2, “Selective glycosidase inhibitors and uses thereof” (Simon Fraser University, priority 2006, dated 2015).

The target in one series is O-GlcNAcase (Homo sapiens (Human), UniProt O60502). Put plainly: Assay for determination of KI values for inhibition of O-GlcNAcase activity. Format: biochemical. To be noted: pNP-GlcNAc 0.5 mM, PBS buffer pH 7.4, 37° C., Dixon plots. On the procedure:
Experimental Procedure for Kinetic Analyses: Enzymatic reactions were carried out in PBS buffer (pH 7.4) using pNP-GlcNAc as a substrate (0.5 mM) and monitored continuously at 37° C. at 400 nm using a Cary 3E UV-VIS spectrophotometer equipped with a Peltier temperature controller. Reactions were pre-heated in a 500 μL quartz cuvette for approximately 5 minutes followed by addition of 10 μL enzyme via syringe (final enzyme concentration 0.002 mg/mL). Reaction velocities were determined by linear regression of the linear region of the reaction progress curve between the first and third minutes. An inhibitor concentration range of ⅕ to 5 times K1 was used in each case.
For example, the K1 values for inhibition of O-GlcNAcase shown in Table 4 were obtained for compounds 2, 4, and 6. All K1 values were determined using linear regression of a Dixon plots.

Series [1] in a line: Stability on storage neat. In kind it is physicochemical. To be noted: stored neat at 0° C. (7 d). Here is the method: The azide obtained as described above (200 mg, 0.81 mmol) was dissolved in 3:1 THF:H2O (5 mL) and triphenylphosphine (310 mg, 1.2 mmol) was added. The solution was then stirred overnight at room temperature. Concentration of the mixture followed by flash chromatography of the resultant residue on silica gel (MeOH:EtOAc 2:3) gave 130 mg (75% yield) of (3aR,5R,6S,7R,7aR)-5-(aminomethyl)-2-propyl-5,6,7,7a-tetrahydro-3aH-pyrano[3,2-d]thiazole-6,7-diol (51) as a colourless oil. […] (7 d). ^1H NMR (500 MHz, methanol-d4): δ 0.97 (t, 3H, J=7.4 Hz), 1.63-1.67 (m, 2H), 2.43-2.49 (m, 2H), 3.39 (ddd, 1H, J=2.5, 4.1, 9.0 Hz), 3.51 (dd, 1H, J=4.1, 9.5 Hz), 3.64 (dd, 1H, J=2.5, 12.5 Hz), 3.75 (dd, 1H, J=6.1, 12.5 Hz), 4.04 (dd, 1H, J=4.4, 4.5 Hz), 4.28 (m, 1H), 6.35 (d, 1H, J=7.0 Hz).

Chain of O-GlcNAcase (O60502 whole entry): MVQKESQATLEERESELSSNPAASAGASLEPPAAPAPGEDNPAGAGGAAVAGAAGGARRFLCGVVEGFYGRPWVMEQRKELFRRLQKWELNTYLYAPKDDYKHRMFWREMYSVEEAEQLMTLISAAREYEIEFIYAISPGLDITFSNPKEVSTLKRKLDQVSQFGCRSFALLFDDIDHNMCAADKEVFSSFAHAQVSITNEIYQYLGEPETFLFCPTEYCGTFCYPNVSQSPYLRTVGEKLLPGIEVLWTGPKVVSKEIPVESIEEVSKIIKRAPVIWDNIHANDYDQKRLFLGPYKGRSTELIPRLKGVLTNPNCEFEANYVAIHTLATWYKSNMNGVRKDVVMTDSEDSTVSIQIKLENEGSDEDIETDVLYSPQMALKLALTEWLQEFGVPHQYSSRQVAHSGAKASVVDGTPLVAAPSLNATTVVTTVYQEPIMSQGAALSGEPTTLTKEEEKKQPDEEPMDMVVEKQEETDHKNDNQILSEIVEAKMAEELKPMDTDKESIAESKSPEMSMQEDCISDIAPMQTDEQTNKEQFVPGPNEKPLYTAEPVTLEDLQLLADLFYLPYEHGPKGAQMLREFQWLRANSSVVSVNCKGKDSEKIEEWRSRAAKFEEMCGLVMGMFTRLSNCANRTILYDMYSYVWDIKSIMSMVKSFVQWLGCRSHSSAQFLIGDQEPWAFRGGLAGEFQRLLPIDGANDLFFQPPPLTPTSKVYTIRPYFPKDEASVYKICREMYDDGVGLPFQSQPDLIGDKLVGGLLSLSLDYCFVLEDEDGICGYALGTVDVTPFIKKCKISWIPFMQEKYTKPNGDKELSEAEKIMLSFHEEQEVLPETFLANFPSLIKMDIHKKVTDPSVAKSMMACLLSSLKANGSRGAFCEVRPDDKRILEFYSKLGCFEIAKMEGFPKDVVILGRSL

As for `OC[C@H]1O[C@@H]2SC(C(F)F)=N[C@@H]2[C@@H](O)[C@@H]1O` [Compound 4, (3aR,5R,6S,7R,7aR)-2-(difluoromethyl)-5-(hydroxymethyl)-5,6,7,7a-tetrahydro-3aH-pyrano[3,2-d]thiazole-6,7-diol], the Ki on O-GlcNAcase was 7.7 µM.
`CCCC1=N[C@@H]2[C@@H](O)[C@H](O)[C@@H](CN)O[C@@H]2S1` [Compound 51, (3aR,5R,6S,7R,7aR)-5-(aminomethyl)-2-propyl-5,6,7,7a-tetrahydro-3aH-pyrano[3,2-d]thiazole-6,7-diol]: in series [1], the stability on storage entry is listed as “decompose slowly with time”.
With `OC[C@H]1O[C@@H]2SC(CF)=N[C@@H]2[C@@H](O)[C@@H]1O` [Compound 2, (3aR,5R,6S,7R,7aR)-2-(fluoromethyl)-5-(hydroxymethyl)-5,6,7,7a-tetrahydro-3aH-pyrano[3,2-d]thiazole-6,7-diol], the Ki on O-GlcNAcase was 10 µM.
On O-GlcNAcase, `OC[C@H]1O[C@@H]2SC(C(F)(F)F)=N[C@@H]2[C@@H](O)[C@@H]1O` [Compound 6, (3aR,5R,6S,7R,7aR)-5-(hydroxymethyl)-2-(trifluoromethyl)-5,6,7,7a-tetrahydro-3aH-pyrano[3,2-d]thiazole-6,7-diol] came in with a Ki of 5.6 µM.

Usually Ki stands for a measure of affinity in units of concentration, obtained from inhibition or displacement. The low end stands for a stronger hold on the target, the high end for a looser hold on the target.
